{"source": "patent US10208046B2", "about": "“Nitrogen-containing heterocyclic compound” (Takeda Pharmaceutical Company Limited, priority 2014, dated 2019)", "molecular_target": "T1, human M1 receptor (hCHRM1) (Homo sapiens, UniProt P11229)", "T1 construct": "expressed in transfected cells", "T1 sequence (P11229 1-460)": "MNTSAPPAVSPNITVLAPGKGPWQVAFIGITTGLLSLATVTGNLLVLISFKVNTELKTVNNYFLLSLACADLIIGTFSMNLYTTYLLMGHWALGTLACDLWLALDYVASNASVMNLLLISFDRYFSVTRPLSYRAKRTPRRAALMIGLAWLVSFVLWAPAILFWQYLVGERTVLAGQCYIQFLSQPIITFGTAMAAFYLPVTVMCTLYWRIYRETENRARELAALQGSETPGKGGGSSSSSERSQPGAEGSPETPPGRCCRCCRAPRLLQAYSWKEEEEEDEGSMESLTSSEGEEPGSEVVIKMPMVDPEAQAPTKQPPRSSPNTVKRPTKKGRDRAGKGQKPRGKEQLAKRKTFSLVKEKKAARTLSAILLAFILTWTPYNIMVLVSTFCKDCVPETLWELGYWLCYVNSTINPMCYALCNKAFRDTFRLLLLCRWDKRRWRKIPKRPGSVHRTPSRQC", "test": "Measurement of M1 receptor positive allosteric modulator (M1PAM) activity, calcium fluorescence in CHO-K1 cells;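 for pEC50: potency reported as IP value in nM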", "assay_type": "cell-based", "settings": "for activity (%) at 10 μM: 10 μM test compound with acetylcholine at EC20, 100% = acetylcholine 1 μM, 0% = DMSO; for pEC50: inflection point in the concentration-dependent curve, acetylcholine at EC20 (final 0.6-0.8 nM), CHO-K1 cells expressing human M1, Fluo-4, FLIPRtetra, read-out: IP value", "description": "Measurement of M1 Receptor Positive Allosteric Modulator (M1PAM) Activity\nThe activity of a test compound in the presence of acetylcholine at EC20 concentration (final concentration 0.6-0.8 nM), which affords an action corresponding to about 20% of the maximum activity, was measured as PAM activity. The method is as follows. CHO-K1 cells stably expressing a human M1 receptor (hCHRM1) were plated on a 384-well black clear bottom plate (BD Falcon) at 5,000 cells/well, and cultured in an incubator at 37° C., 5% CO2 for 1 day. The medium in the cell plate was removed, and assay buffer A containing calcium indicator (Recording medium (DOJINDO LABORATORIES), 0.1% BSA (Wako Pure Chemical Industries, Ltd.), 2.5 μg/mL Fluo-4 AM (DOJINDO LABORATORIES), 0.08% Pluronic F127 (DOJINDO LABORATORIES), 1.25 mM probenecid (DOJINDO LABORATORIES)) was added at 30 μL/well. The cells were left standing in the incubator at 37° C., 5% CO2 for 30 min, and further left standing at room temperature for 30 min. A test compound prepared by diluting with assay buffer B (HBSS (Invitrogen), 20 mM HEPES (Invitrogen), 0.1% BSA) containing 2.4-3.2 nM acetylcholine was added at 10 μL/well, and the fluorescence was measured by FLIPRtetra (Molecular Devices) for 1 min every 1 second. With the definition that the amount of change in the fluorescence on addition of acetylcholine (final concentration 1 μM) is 100% and that on addition of DMSO instead of a test compound is 0%, the activity (%) of the test compound was calculated, and the inflection point in the concentration-dependent curve of the test compound was calculated as IP values.", "note": "pEC50: −log10 of the molar value."}
{"molecule": "CCn1cc(-c2ccc(CN3Cc4ncnc(OCC(F)(F)CC)c4C3=O)cc2)cn1", "note": "[Example 68, 4-(2,2-difluorobutoxy)-6-(4-(1-ethyl-1H-pyrazol-4-yl)benzyl)-6,7-dihydro-5H-pyrrolo[3,4-d]pyrimidin-5-one]", "values": [{"measurement": "activity (%) at 10 μM", "result": 97, "unit": "%"}, {"measurement": "pEC50", "result": 8.15}]}
{"molecule": "Cc1nn(C)cc1-c1ccc(CN2Cc3ncnc(OCC(F)F)c3C2=O)c(F)c1", "note": "[Example 40, 4-(2,2-difluoroethoxy)-6-(4-(1,3-dimethyl-1H-pyrazol-4-yl)-2-fluorobenzyl)-6,7-dihydro-5H-pyrrolo[3,4-d]pyrimidin-5-one]", "values": [{"measurement": "activity (%) at 10 μM", "result": 96, "unit": "%"}, {"measurement": "pEC50", "result": 8.05}]}
{"molecule": "Cn1cc(-c2ccc(CN3Cc4ncnc(OCC(C)(F)F)c4C3=O)cc2)cn1", "note": "[Example 78, 4-(2,2-difluoropropoxy)-6-(4-(1-methyl-1H-pyrazol-4-yl)benzyl)-6,7-dihydro-5H-pyrrolo[3,4-d]pyrimidin-5-one]", "values": [{"measurement": "activity (%) at 10 μM", "result": 95, "unit": "%"}, {"measurement": "pEC50", "result": 7.72}]}
{"molecule": "Cc1nn(C)cc1-c1cc(F)c(CN2Cc3ncnc(OCC(F)F)c3C2=O)s1", "note": "[Example 15, 4-(2,2-difluoroethoxy)-6-((5-(1,3-dimethyl-1H-pyrazol-4-yl)-3-fluoro-2-thienyl)methyl)-6,7-dihydro-5H-pyrrolo[3,4-d]pyrimidin-5-one]", "values": [{"measurement": "activity (%) at 10 μM", "result": 100, "unit": "%"}, {"measurement": "pEC50", "result": 7.80}]}
{"molecule": "CCn1cc(-c2ccc(CN3Cc4ncnc(OCC(F)F)c4C3=O)c(F)c2)cn1", "note": "[Example 4, 4-(2,2-difluoroethoxy)-6-(4-(1-ethyl-1H-pyrazol-4-yl)-2-fluorobenzyl)-6,7-dihydro-5H-pyrrolo[3,4-d]pyrimidin-5-one]", "values": [{"measurement": "activity (%) at 10 μM", "result": 99, "unit": "%"}, {"measurement": "pEC50", "result": 8.06}]}
{"molecule": "CCC(F)(F)COc1nccc2c1C(=O)N(Cc1ccc(-c3cnn(CC(F)F)c3)cc1F)C2", "note": "[Example 59, 4-(2,2-difluorobutoxy)-2-(4-(1-(2,2-difluoroethyl)-1H-pyrazol-4-yl)-2-fluorobenzyl)-1,2-dihydro-3H-pyrrolo[3,4-c]pyridin-3-one]", "values": [{"measurement": "activity (%) at 10 μM", "result": 107, "unit": "%"}, {"measurement": "pEC50", "result": 7.77}]}
{"molecule": "CCn1cc(-c2ccc(CN3Cc4ccnc(OCC(F)(F)CC)c4C3=O)cc2)cn1", "note": "[Example 77, 4-(2,2-difluorobutoxy)-2-(4-(1-ethyl-1H-pyrazol-4-yl)benzyl)-1,2-dihydro-3H-pyrrolo[3,4-c]pyridin-3-one]", "values": [{"measurement": "activity (%) at 10 μM", "result": 99, "unit": "%"}, {"measurement": "pEC50", "result": 7.17}]}
{"molecule": "O=C1c2c(ccnc2OCC(F)F)CN1Cc1ccc(-c2cnn(CC(F)(F)F)c2)cc1", "note": "[Example 65, 4-(2,2-difluoroethoxy)-2-(4-(1-(2,2,2-trifluoroethyl)-1H-pyrazol-4-yl)benzyl)-1,2-dihydro-3H-pyrrolo[3,4-c]pyridin-3-one]", "values": [{"measurement": "activity (%) at 10 μM", "result": 106, "unit": "%"}, {"measurement": "pEC50", "result": 7.04}]}
{"molecule": "CCC(F)(F)COc1nccc2c1C(=O)N(Cc1ccc(-c3cnn(CC(F)F)c3)cc1)C2", "note": "[Example 76, 4-(2,2-difluorobutoxy)-2-(4-(1-(2,2-difluoroethyl)-1H-pyrazol-4-yl)benzyl)-1,2-dihydro-3H-pyrrolo[3,4-c]pyridin-3-one]", "values": [{"measurement": "activity (%) at 10 μM", "result": 94, "unit": "%"}, {"measurement": "pEC50", "result": 7.35}]}
{"molecule": "CCn1cc(-c2ccc(CN3Cc4ccnc(OCC(C)(F)F)c4C3=O)cc2)cn1", "note": "[Example 84, 4-(2,2-difluoropropoxy)-2-(4-(1-ethyl-1H-pyrazol-4-yl)benzyl)-1,2-dihydro-3H-pyrrolo[3,4-c]pyridin-3-one]", "values": [{"measurement": "activity (%) at 10 μM", "result": 96, "unit": "%"}, {"measurement": "pEC50", "result": 7.14}]}
{"molecule": "CCn1cc(-c2ccc(CN3Cc4ncnc(OCC(F)F)c4C3=O)cc2)cn1", "note": "[Example 2, 4-(2,2-difluoroethoxy)-6-(4-(1-ethyl-1H-pyrazol-4-yl)benzyl)-6,7-dihydro-5H-pyrrolo[3,4-d]pyrimidin-5-one]", "values": [{"measurement": "activity (%) at 10 μM", "result": 108, "unit": "%"}, {"measurement": "pEC50", "result": 7.51}]}
{"molecule": "Cc1nn(C)cc1-c1ccc(CN2Cc3ncnc(OCC(C)(C)F)c3C2=O)c(F)c1", "note": "[Example 46, 6-(4-(1,3-dimethyl-1H-pyrazol-4-yl)-2-fluorobenzyl)-4-(2-fluoro-2-methylpropoxy)-6,7-dihydro-5H-pyrrolo[3,4-d]pyrimidin-5-one]", "values": [{"measurement": "activity (%) at 10 μM", "result": 90, "unit": "%"}, {"measurement": "pEC50", "result": 8.28}]}
{"molecule": "CCn1cc(-c2ccc(CN3Cc4ccnc(OCC(F)F)c4C3=O)cc2)cn1", "note": "[Example 66, 4-(2,2-difluoroethoxy)-2-(4-(1-ethyl-1H-pyrazol-4-yl)benzyl)-1,2-dihydro-3H-pyrrolo[3,4-c]pyridin-3-one]", "values": [{"measurement": "activity (%) at 10 μM", "result": 105, "unit": "%"}, {"measurement": "pEC50", "result": 7.18}]}
{"molecule": "Cc1nn(C)cc1-c1ccc(CN2Cc3ncnc(OCC(F)(F)F)c3C2=O)c(F)c1", "note": "[Example 36, 6-(4-(1,3-dimethyl-1H-pyrazol-4-yl)-2-fluorobenzyl)-4-(2,2,2-trifluoroethoxy)-6,7-dihydro-5H-pyrrolo[3,4-d]pyrimidin-5-one]", "values": [{"measurement": "activity (%) at 10 μM", "result": 99, "unit": "%"}, {"measurement": "pEC50", "result": 7.66}]}
{"molecule": "CCC(F)(F)COc1nccc2c1C(=O)N(Cc1ccc(-c3cnn(CC(F)(F)F)c3)cc1)C2", "note": "[Example 73, 4-(2,2-difluorobutoxy)-2-(4-(1-(2,2,2-trifluoroethyl)-1H-pyrazol-4-yl)benzyl)-1,2-dihydro-3H-pyrrolo[3,4-c]pyridin-3-one]", "values": [{"measurement": "activity (%) at 10 μM", "result": 94, "unit": "%"}, {"measurement": "pEC50", "result": 7.30}]}
{"molecule": "CC(F)(F)COc1nccc2c1C(=O)N(Cc1ccc(-c3cnn(CC(F)(F)F)c3)cc1)C2", "note": "[Example 12, 4-(2,2-difluoropropoxy)-2-(4-(1-(2,2,2-trifluoroethyl)-1H-pyrazol-4-yl)benzyl)-1,2-dihydro-3H-pyrrolo[3,4-c]pyridin-3-one]", "values": [{"measurement": "activity (%) at 10 μM", "result": 97, "unit": "%"}, {"measurement": "pEC50", "result": 7.23}]}
{"molecule": "CCn1cc(-c2ccc(CN3Cc4ncnc(OCC(C)(F)F)c4C3=O)c(F)c2)cn1", "note": "[Example 3, 4-(2,2-difluoropropoxy)-6-(4-(1-ethyl-1H-pyrazol-4-yl)-2-fluorobenzyl)-6,7-dihydro-5H-pyrrolo[3,4-d]pyrimidin-5-one]", "values": [{"measurement": "activity (%) at 10 μM", "result": 103, "unit": "%"}, {"measurement": "pEC50", "result": 8.05}]}
{"molecule": "Cn1cc(-c2ccc(CN3Cc4ccnc(OCC(C)(C)F)c4C3=O)c(F)c2)cn1", "note": "[Example 81, 4-(2-fluoro-2-methylpropoxy)-2-(2-fluoro-4-(1-methyl-1H-pyrazol-4-yl)benzyl)-1,2-dihydro-3H-pyrrolo[3,4-c]pyridin-3-one]", "values": [{"measurement": "activity (%) at 10 μM", "result": 88, "unit": "%"}, {"measurement": "pEC50", "result": 7.49}]}
{"molecule": "CCn1cc(-c2ccc(CN3Cc4ccnc(OCC(F)(F)CC)c4C3=O)c(F)c2)cn1", "note": "[Example 60, 4-(2,2-difluorobutoxy)-2-(4-(1-ethyl-1H-pyrazol-4-yl)-2-fluorobenzyl)-1,2-dihydro-3H-pyrrolo[3,4-c]pyridin-3-one]", "values": [{"measurement": "activity (%) at 10 μM", "result": 94, "unit": "%"}, {"measurement": "pEC50", "result": 8.13}]}
{"molecule": "CC(F)(F)COc1nccc2c1C(=O)N(Cc1ccc(-c3ccns3)cc1)C2", "note": "[Example 20, 4-(2,2-difluoropropoxy)-2-(4-(1,2-thiazol-5-yl)benzyl)-1,2-dihydro-3H-pyrrolo[3,4-c]pyridin-3-one]", "values": [{"measurement": "activity (%) at 10 μM", "result": 91, "unit": "%"}, {"measurement": "pEC50", "result": 6.44}]}
{"molecule": "O=C1c2c(ccnc2OCC(F)F)CN1Cc1ccc(-c2cnn(CC(F)F)c2)cc1F", "note": "[Example 56, 4-(2,2-difluoroethoxy)-2-(4-(1-(2,2-difluoroethyl)-1H-pyrazol-4-yl)-2-fluorobenzyl)-1,2-dihydro-3H-pyrrolo[3,4-c]pyridin-3-one]", "values": [{"measurement": "activity (%) at 10 μM", "result": 102, "unit": "%"}, {"measurement": "pEC50", "result": 7.68}]}
{"molecule": "Cc1nn(C)cc1-c1ccc(CN2Cc3ccnc(OCC(F)(F)F)c3C2=O)c(F)c1", "note": "[Example 88, 2-(4-(1,3-dimethyl-1H-pyrazol-4-yl)-2-fluorobenzyl)-4-(2,2,2-trifluoroethoxy)-1,2-dihydro-3H-pyrrolo[3,4-c]pyridin-3-one]", "values": [{"measurement": "activity (%) at 10 μM", "result": 101, "unit": "%"}, {"measurement": "pEC50", "result": 7.13}]}
